In PubChem BioAssay (NCI):
Several values for one entry are separate records, joined by “and”; a condition that tells them apart may be missing. Equal entries are not always repeated.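 Results reflect a 48-hour exposure of cells in 96-well plates to compound at five concentrations. The concentration for 50% growth inhibition is given as GI50. At the TGI there is no net growth.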

Legend:
Test in all cases: inhibition of tumour cell growth, NCI panel, 48 h
[1] = tested on: HCT-116 colon
[2] = tested on: HCT-15 colon
[3] = tested on: IGROV1 ovarian
[4] = tested on: KM20L2 colon
[5] = tested on: M14 melanoma
[6] = tested on: MOLT-4 leukemia
[7] = tested on: NCI-H226 lung
[8] = tested on: SR leukemia
[9] = tested on: SW-620 colon
[10] = tested on: UACC-62 melanoma

Question: `O=C1c2cccc3cc([N+](=O)[O-])cc(c23)C(=O)N1NC1=NCCN1` was tested. Which TGI [1] did it give?
Answer: > 100 µM

Question: What about the TGI [2] of the same compound?
Answer: > 100 µM

Question: What about the TGI [3] of the same compound?
Answer: > 100 µM

Question: What about the TGI [4] of the same compound?
Answer: > 100 µM

Question: And the TGI [5]?
Answer: > 100 µM

Question: What about the TGI [6] of the same compound?
Answer: > 100 µM

Question: What about the TGI [7] of the same compound?
Answer: > 100 µM

Question: What about the TGI [8] of the same compound?
Answer: > 100 µM

Question: And the TGI [9]?
Answer: > 100 µM

Question: What about the TGI [10] of the same compound?
Answer: > 100 µM

Question: Which results are given for `CC(C)N(C(=O)C12C3C4C5C3C1(C(=O)N(C(C)C)C(C)C)C5(C#N)C42)C(C)C` (stereo not drawn)?
Answer: TGI [1]: > 100 µM; TGI [2]: > 100 µM; TGI [3]: > 100 µM; TGI [4]: > 100 µM; TGI [5]: > 100 µM; TGI [6]: > 100 µM; TGI [7]: > 100 µM; TGI [8]: 66.4 µM; TGI [9]: > 100 µM; TGI [10]: > 100 µM

Question: `CC1(C)OC(=O)[C@@](C)([C@H](O)c2ccccc2)O1` was tested. Which TGI [1] did it give?
Answer: > 100 µM

Question: And the TGI [3]?
Answer: > 100 µM

Question: And the TGI [4]?
Answer: > 100 µM

Question: What about the TGI [5] of the same compound?
Answer: > 100 µM

Question: And the TGI [6]?
Answer: > 100 µM

Question: And the TGI [7]?
Answer: > 100 µM

Question: And the TGI [8]?
Answer: > 100 µM

Question: And the TGI [9]?
Answer: > 100 µM

Question: What about the TGI [10] of the same compound?
Answer: > 100 µM

Question: With `N#CCCN(CCC#N)C(=O)c1cccc(C(=O)N(CCC#N)CCC#N)c1` as the compound, how does the TGI [1] read?
Answer: 99.4 µM

Question: And the TGI [2]?
Answer: > 100 µM

Question: What about the TGI [3] of the same compound?
Answer: > 100 µM

Question: And the TGI [4]?
Answer: > 63.8 µM

Question: What about the TGI [5] of the same compound?
Answer: > 100 µM

Question: What about the TGI [6] of the same compound?
Answer: > 100 µM

Question: What about the TGI [8] of the same compound?
Answer: > 68.4 µM

Question: And the TGI [9]?
Answer: 26.5 µM

Question: What about the TGI [10] of the same compound?
Answer: > 61.2 µM

Question: Which TGI [1] does the source give for `C=C[C@@]1(C)CCC2(O)C(CCC3C2(C)CCC[C@@]3(C)COC(=O)CC(=O)OC)C1` (stereo partly drawn) here?
Answer: 32.3 µM

Question: What about the TGI [2] of the same compound?
Answer: 34.9 µM

Question: And the TGI [3]?
Answer: 71.7 µM

Question: And the TGI [4]?
Answer: 33.6 µM

Question: What about the TGI [5] of the same compound?
Answer: 32.7 µM

Question: And the TGI [6]?
Answer: 36 µM

Question: What about the TGI [7] of the same compound?
Answer: 55.9 µM

Question: And the TGI [8]?
Answer: 43.9 µM

Question: And the TGI [9]?
Answer: 31.7 µM

Question: And the TGI [10]?
Answer: 32.3 µM

Question: What does the source list for `[C-]#[O+].[Cl][Sn]([Cl])[Cl].[Cl][Sn]([Cl])[Cl].[Pt].c1ccc([PH+](c2ccccc2)c2ccccc2)cc1.c1ccc([PH+](c2ccccc2)c2ccccc2)cc1`?
Answer: GI50 [1]: 43.2 µM; TGI [1]: > 100 µM; GI50 [2]: 49.9 µM; TGI [2]: > 100 µM; GI50 [3]: 20.9 µM; TGI [3]: > 100 µM; GI50 [4]: > 100 µM; TGI [4]: > 100 µM; GI50 [5]: 30.7 µM; TGI [5]: > 100 µM; GI50 [8]: 37.7 µM; TGI [8]: > 100 µM; GI50 [9]: 35.1 µM; TGI [9]: > 100 µM; GI50 [10]: 27.7 µM; TGI [10]: > 100 µM

Question: How did the TGI [1] turn out when `CC1=CCC2(C#N)CCC1C2O` (stereo not drawn) was run?
Answer: > 100 µM

Question: And the TGI [2]?
Answer: > 100 µM

Question: What about the TGI [3] of the same compound?
Answer: > 100 µM

Question: What about the TGI [4] of the same compound?
Answer: > 100 µM

Question: And the TGI [5]?
Answer: > 100 µM

Question: What about the TGI [6] of the same compound?
Answer: > 100 µM

Question: What about the TGI [7] of the same compound?
Answer: > 100 µM

Question: And the TGI [8]?
Answer: > 100 µM

Question: What about the TGI [10] of the same compound?
Answer: > 100 µM

Question: With `O=C(CC(=O)C(=O)Nc1ccccc1)CC(c1ccccc1)c1c(O)c2ccccc2oc1=O` (stereo not drawn) as the compound, how does the TGI [1] read?
Answer: > 100 µM

Question: And the TGI [2]?
Answer: > 100 µM

Question: What about the TGI [3] of the same compound?
Answer: > 100 µM

Question: And the TGI [4]?
Answer: > 100 µM

Question: What about the TGI [5] of the same compound?
Answer: > 100 µM

Question: And the TGI [6]?
Answer: > 100 µM

Question: What about the TGI [7] of the same compound?
Answer: > 100 µM

Question: And the TGI [9]?
Answer: > 100 µM

Question: And the TGI [10]?
Answer: > 100 µM

Question: Which results are given for `O=C(c1ccccc1)C(c1ccccc1)C1(O)C(=O)Nc2ccccc21` (stereo not drawn)?
Answer: TGI [1]: > 100 µM; TGI [2]: > 100 µM; TGI [3]: > 100 µM; TGI [4]: > 100 µM; TGI [5]: > 100 µM; TGI [6]: > 100 µM; TGI [7]: > 100 µM; TGI [9]: > 100 µM; TGI [10]: > 100 µM

Question: For `C/C=C(\C)c1cc(=O)c2c(C)cc3c(c2o1)C(=O)c1c(O)c(C2CC(C)(N(C)C)C(O)C(C)O2)cc(C2CC(N(C)C)C(O)C(C)O2)c1C3=O` (stereo not drawn), which TGI [1] is on record?
Answer: 1.3 µM and 10.2 µM

Question: What about the GI50 [2] of the same compound?
Answer: 0.42 µM and 3.22 µM

Question: And the TGI [2]?
Answer: 5.15 µM and 24.4 µM

Question: And the TGI [3]?
Answer: 3.2 µM and > 27.6 µM

Question: What about the TGI [4] of the same compound?
Answer: 25 µM

Question: And the TGI [5]?
Answer: 0.312 µM

Question: And the GI50 [6]?
Answer: 0.687 µM

Question: What about the TGI [6] of the same compound?
Answer: 15.6 µM

Question: And the TGI [8]?
Answer: 12 µM

Question: What about the TGI [9] of the same compound?
Answer: 1.96 µM and 16.7 µM

Question: For `COc1ccc(C2=Nc3ccccc3SC(C)C2)cc1` (stereo not drawn), which TGI [1] is on record?
Answer: 33 µM

Question: What about the TGI [2] of the same compound?
Answer: > 100 µM

Question: What about the TGI [3] of the same compound?
Answer: > 100 µM

Question: And the TGI [4]?
Answer: > 100 µM

Question: And the TGI [5]?
Answer: > 100 µM

Question: What about the TGI [6] of the same compound?
Answer: > 100 µM

Question: What about the TGI [7] of the same compound?
Answer: > 100 µM

Question: What about the TGI [9] of the same compound?
Answer: > 100 µM

Question: What about the TGI [10] of the same compound?
Answer: > 100 µM

Question: Which results are given for `CC1(C)C(c2ccccc2)=NN(O)c2ccccc21`?
Answer: TGI [1]: > 100 µM; TGI [2]: > 100 µM; TGI [3]: > 100 µM; TGI [4]: > 100 µM; TGI [5]: > 100 µM; TGI [6]: > 100 µM; TGI [7]: > 100 µM; TGI [9]: > 100 µM; TGI [10]: > 100 µM

Question: Which results are given for `NC(C/[N+]([O-])=N/O)C(=O)O` (stereo not drawn)?
Answer: GI50 [1]: 1.01 µM and 2.07 µM and 0.954 µM; GI50 [2]: 3.65 µM and 6.69 µM and 1.8 µM; TGI [2]: > 100 µM and 329 µM; GI50 [3]: 0.107 µM and 0.967 µM and 0.348 µM; TGI [3]: > 24.7 µM and > 100 µM and 256 µM; TGI [4]: > 500 µM; GI50 [5]: 28.9 µM and 37.5 µM and 24.4 µM; TGI [5]: > 459 µM; GI50 [6]: 23.3 µM; TGI [6]: > 100 µM and 315 µM; TGI [7]: > 468 µM; TGI [8]: > 228 µM; GI50 [9]: 9.22 µM and 19.7 µM and 15.1 µM; TGI [9]: > 100 µM and 417 µM; GI50 [10]: 6.05 µM and 7.49 µM and 3.12 µM; TGI [10]: > 100 µM and 81.9 µM

Question: Which results are given for `O=C(C/C(=N\NC(=O)C[n+]1ccccc1)C(=O)Nc1nc2ccc([N+](=O)[O-])cc2s1)CC(c1ccccc1)c1c(O)c2ccccc2oc1=O` (stereo not drawn)?
Answer: TGI [1]: > 100 µM; TGI [3]: > 100 µM; TGI [4]: > 100 µM; TGI [5]: > 100 µM; TGI [6]: > 100 µM; TGI [8]: > 100 µM; TGI [9]: > 100 µM; TGI [10]: > 100 µM

Question: How did the TGI [1] turn out when `CCCN(CCCN)/[N+]([O-])=N\O` was run?
Answer: > 100 µM

Question: And the TGI [2]?
Answer: > 100 µM

Question: What about the TGI [3] of the same compound?
Answer: > 100 µM

Question: And the TGI [4]?
Answer: 2.74 µM

Question: What about the TGI [5] of the same compound?
Answer: > 100 µM

Question: What about the TGI [6] of the same compound?
Answer: > 100 µM

Question: And the TGI [7]?
Answer: > 100 µM

Question: What about the TGI [8] of the same compound?
Answer: > 100 µM

Question: And the TGI [9]?
Answer: > 100 µM

Question: What about the TGI [10] of the same compound?
Answer: 0.831 µM

Question: For `O=C(CC(=O)c1ccc([N+](=O)[O-])cc1)C(=O)Nc1nccs1`, which TGI [1] is on record?
Answer: > 100 µM

Question: What about the TGI [2] of the same compound?
Answer: > 100 µM

Question: What about the TGI [3] of the same compound?
Answer: > 100 µM

Question: What about the TGI [4] of the same compound?
Answer: > 100 µM

Question: And the TGI [5]?
Answer: > 100 µM

Question: And the TGI [6]?
Answer: > 100 µM

Question: What about the TGI [7] of the same compound?
Answer: > 100 µM

Question: What about the TGI [8] of the same compound?
Answer: > 100 µM

Question: What about the TGI [9] of the same compound?
Answer: > 100 µM

Question: What about the TGI [10] of the same compound?
Answer: > 100 µM
